# Data reported in patent US20100105637A1, “Drug-surfactant complexes for sustained release” (priority 2005, published 2010).
# Counter-ions that a name gives are not always drawn.
# Experiment: Fractional release of drug from tablets into stirred aqueous solution, measured by uv/vis spectroscopy
# Assay type: physicochemical
# Details: 150 mg tablets without binders or excipients, pH 7.0 water, stirred at 100 rpm (FIG. 1)
# Method: The tablets were placed into pH 7.0 water and stirred with a stirrer at 100 rpm. Fractional release was determined by uv/vis spectroscopy of the aqueous solution at 278 nm to measure the concentration of diltiazem in solution.
# The tablets were placed in pH 7.0 water and stirred at 100 rpm, and fractional release was measured as above.
# The drug-bile complex was pressed into tablets without any binders or excipients as in Example 1.
smiles,measurement,value
"COc1ccc([C@@H]2Sc3ccccc3N(CCN(C)C)C(=O)[C@@H]2OC(C)=O)cc1 [diltiazem-HCl, Diltiazem-HCl]",amount of diltiazem released at the first time point,all
